{"source": "patent US5858371A", "about": "“Pharmaceutical composition for the control and treatment of anorectal and colonic diseases” (Panacea Biotech Limited, priority 1997, dated 1999)", "key": {"neutrophil functions": {"tested_on": "neutrophil functions", "details": "cited from earlier work"}, "[1]": {"tested_on": "croton-oil induced ear oedema", "test": "Croton oil ear test (topical; oedema)", "assay_type": "in vivo, mice", "details": "for Activity Ratio on Molar basis: Indomethacin = 1; for Effect on Oedema Development: apigenin glycoside 0.037, luteolin glycoside 0.27, indomethacin 1.26, hydrocortisone 0.41 μMol, means ± s.e.", "excerpt": "The test used was described in published literature, where apigenin 7-glucoside was used as a reference sample.\nIndomethacin and hydrocortisone were used as the reference drugs."}, "cotton pellet granuloma": {"tested_on": "cotton pellet granuloma", "details": "in vivo; cited from earlier work"}, "[2]": {"tested_on": "mast cell histamine secretion", "details": "cited from earlier work"}, "[3]": {"tested_on": "granulocyte infiltration (MPO activity)", "test": "Granulocyte/leucocyte infiltration (MPO activity), croton oil ear", "assay_type": "in vivo, mice", "details": "for leukocyte infiltration: measured as myeloperoxidase activity; for Effect on granulocyte infiltration (MPO activity): apigenin glycoside 0.37, luteolin glycoside 0.27, indomethacin 1.26, hydrocortisone 0.41 μMol, one unit = 1 nMol/min. of tetraguaiacol at 25° C.", "procedure": "Effect on granulocyte infiltration (MPO activity).\nOne unit = 1 nMol/min. of tetraguaiacol formed at 25° C. p < 0.05\nThe inflammation appears to naturally suppress after 30 hours."}, "[4]": {"tested_on": "Carrageenan-induced Pedal Oedema", "test": "Carrageenan-induced pedal oedema in rats, oral extract / i.p. indomethacin", "assay_type": "in vivo", "details": "for Oedema + SEM (%): N=6", "excerpt": "Carrageenan-induced oedema is a biphasic event, the early hypermia being due to the release of histamine and serotonin and the delayed oedema due to the release of bradykinin and prostaglandins.\nModification of Carrageenan-induced Pedal Oedema in Rats following oral\nAdministration of the extract and Intraperitoneal treatment with […]"}, "[5]": {"tested_on": "Carrageenan-induced Mice Paw Oedema", "test": "Carrageenan-induced paw oedema, topical application", "assay_type": "in vivo", "procedure": "Carrageenan-induced Pedal Oedema Test:\nModification of Carrageenan-induced Mice Paw Oedema following Topical\nApplication of the Standardized Extract and Indomethacin.\nThe duration of action of topical preparation was determined by studying the effects of different concentrations of the drug on oedema over a period of 8 hr. As evident from the Table 3, the peak inhibition was observed after 3-4 hours of carrageenan injection beginning at 2 hr for the extract at lower concentrations (0.5-2.0%) and 1 hr. at 4% concentration."}}, "data": [{"smiles": "O=c1c(O)c(-c2ccc(O)c(O)c2)oc2cc(O)cc(O)c12", "note": "[Quercetin, quercetin]", "values": [{"measurement": "neutrophil functions: release of lysosomal enzymes, oxygen consumption, generation of free radicals and chemotaxis", "setting": "neutrophil functions", "result": "inhibits mast cell histamine secretion (Benett, J. P., Gomperts, B. D. and Wollenweber, E., Arzneim. Forsch., 31, 433, 1981), neutrophil functions such as release of lysosomal enzymes, oxygen consumption, generation of free radicals and chemotaxis"}, {"measurement": "Activity Ratio on Molar basis", "setting": "[1]", "result": 0.65}, {"measurement": "exudative and proliferative phases of cotton pellet granuloma", "setting": "cotton pellet granuloma", "result": "control significantly the exudative and the proliferative phases of the cotton pellet granuloma"}, {"measurement": "mast cell histamine secretion", "setting": "[2]", "result": "inhibits mast cell histamine secretion"}]}, {"smiles": "O=c1cc(-c2ccc(O)c(O)c2)oc2cc(O)cc(O)c12", "note": "[luteolin]", "values": [{"measurement": "leukocyte infiltration", "setting": "[3]", "result": "decrease leukocyte infiltration and luteolin maintained its effect even after 18 hours of treatment"}]}, {"smiles": "O=c1cc(-c2ccc(O)cc2)oc2cc(O[C@@H]3O[C@H](CO)[C@@H](O)[C@H](O)[C@H]3O)cc(O)c12", "note": "[Apigenin-7-glucoside]", "values": [{"measurement": "Activity Ratio on Molar basis", "setting": "[1]", "result": 0.32}]}, {"smiles": "COc1ccc2c(c1)c(CC(=O)O)c(C)n2C(=O)c1ccc(Cl)cc1", "note": "[Indomethacin]", "values": [{"measurement": "Oedema + SEM (%)", "setting": "[4]; indomethacin 0.5 mg/Kg i.p., +30 min", "result": "13.6 ± 4.0", "unit": "%"}, {"measurement": "Oedema + SEM (%)", "setting": "[4]; indomethacin 0.5 mg/Kg i.p., +60 min", "result": "18.9 ± 4.0", "unit": "%"}, {"measurement": "Oedema + SEM (%)", "setting": "[4]; indomethacin 0.5 mg/Kg i.p., +120 min", "result": "28.8 ± 4.2", "unit": "%"}, {"measurement": "Oedema + SEM (%)", "setting": "[4]; indomethacin 1.0 mg/Kg i.p., +30 min", "result": "9.3 ± 2.3", "unit": "%"}, {"measurement": "Oedema + SEM (%)", "setting": "[4]; indomethacin 1.0 mg/Kg i.p., +60 min", "result": "12.3 ± 2.2", "unit": "%"}, {"measurement": "Oedema + SEM (%)", "setting": "[4]; indomethacin 1.0 mg/Kg i.p., +120 min", "result": "16.4 ± 1.6", "unit": "%"}, {"measurement": "inhibition of oedema", "setting": "[4]; indomethacin 1 mg/kg i.p.", "result": 74, "unit": "%"}, {"measurement": "Oedema + SEM (%)", "setting": "[4]; indomethacin 2.0 mg/Kg i.p., +30 min", "result": "8.2 ± 1.5", "unit": "%"}, {"measurement": "Oedema + SEM (%)", "setting": "[4]; indomethacin 2.0 mg/Kg i.p., +60 min", "result": "12.8 ± 1.8", "unit": "%"}, {"measurement": "Effect on Oedema Development", "setting": "[1]; 6 hours after treatment", "result": "0.0 ± 0.1", "unit": "mg"}, {"measurement": "duration of antiinflammatory activity", "setting": "[1]; 18 hours after treatment", "result": "lose their antiinflammatory activity 18 hours after treatment"}, {"measurement": "Effect on Oedema Development", "setting": "[1]; 18 hours after treatment", "result": "3.1 ± 0.4", "unit": "mg"}, {"measurement": "Effect on Oedema Development", "setting": "[1]; 30 hours after treatment", "result": "0.5 ± 0.1", "unit": "mg"}, {"measurement": "Effect on granulocyte infiltration (MPO activity)", "setting": "[3]; 6 hours after treatment", "result": "0.0 ± 0.1", "unit": "unit"}, {"measurement": "Effect on granulocyte infiltration (MPO activity)", "setting": "[3]; 18 hours after treatment", "result": "10.0 ± 1.6", "unit": "unit"}, {"measurement": "Effect on granulocyte infiltration (MPO activity)", "setting": "[3]; 30 hours after treatment", "result": "6.8 ± 3.4", "unit": "unit"}, {"measurement": "inhibition of carrageenan-induced paw oedema", "setting": "[5]; Indomethacin line printed at dose 1.00, +60 m, N=6", "result": 30.3, "unit": "%"}, {"measurement": "inhibition of carrageenan-induced paw oedema", "setting": "[5]; Indomethacin line printed at dose 1.00, +120 m, N=6", "result": 28.0, "unit": "%"}, {"measurement": "inhibition of carrageenan-induced paw oedema", "setting": "[5]; Indomethacin line printed at dose 1.00, +180 m, N=6", "result": 46.8, "unit": "%"}, {"measurement": "inhibition of carrageenan-induced paw oedema", "setting": "[5]; Indomethacin line printed at dose 1.00, +240 m, N=6", "result": 21.2, "unit": "%"}, {"measurement": "inhibition of carrageenan-induced paw oedema", "setting": "[5]; Indomethacin line printed at dose 1.00, +360 m, N=6", "result": 11.5, "unit": "%"}, {"measurement": "inhibition of carrageenan-induced paw oedema", "setting": "[5]; Indomethacin line printed at dose 1.00, +480 m, N=6", "result": 13.9, "unit": "%"}, {"measurement": "inhibition of carrageenan-induced paw oedema", "setting": "[5]; Indomethacin line printed at dose 2.00, +60 m, N=6", "result": 18.2, "unit": "%"}, {"measurement": "inhibition of carrageenan-induced paw oedema", "setting": "[5]; Indomethacin line printed at dose 2.00, +120 m, N=6", "result": 24.0, "unit": "%"}, {"measurement": "inhibition of carrageenan-induced paw oedema", "setting": "[5]; Indomethacin line printed at dose 2.00, +180 m, N=6", "result": 29.0, "unit": "%"}, {"measurement": "inhibition of carrageenan-induced paw oedema", "setting": "[5]; Indomethacin line printed at dose 2.00, +240 m, N=6", "result": 21.2, "unit": "%"}, {"measurement": "inhibition of carrageenan-induced paw oedema", "setting": "[5]; Indomethacin line printed at dose 2.00, +360 m, N=6", "result": 9.6, "unit": "%"}, {"measurement": "inhibition of carrageenan-induced paw oedema", "setting": "[5]; Indomethacin line printed at dose 2.00, +480 m, N=6", "result": 4.6, "unit": "%"}, {"measurement": "inhibition", "setting": "[5]; indomethacin 2 percent concentration", "result": 41.9, "unit": "%"}, {"measurement": "inhibition of carrageenan-induced paw oedema", "setting": "[5]; last line, no dose given, +60 m", "result": 24.2, "unit": "%"}, {"measurement": "inhibition of carrageenan-induced paw oedema", "setting": "[5]; last line, no dose given, +120 m", "result": 26.0, "unit": "%"}, {"measurement": "inhibition of carrageenan-induced paw oedema", "setting": "[5]; last line, no dose given, +180 m", "result": 41.9, "unit": "%"}, {"measurement": "inhibition of carrageenan-induced paw oedema", "setting": "[5]; last line, no dose given, +240 m", "result": 36.4, "unit": "%"}, {"measurement": "inhibition of carrageenan-induced paw oedema", "setting": "[5]; last line, no dose given, +360 m", "result": 11.5, "unit": "%"}, {"measurement": "inhibition of carrageenan-induced paw oedema", "setting": "[5]; last line, no dose given, +480 m", "result": 10.6, "unit": "%"}]}, {"smiles": "C[C@@H]1O[C@@H](OC[C@H]2O[C@@H](Oc3c(-c4ccc(O)c(O)c4)oc4cc(O)cc(O)c4c3=O)[C@H](O)[C@@H](O)[C@@H]2O)[C@H](O)[C@H](O)[C@H]1O", "note": "[Rutin]", "values": [{"measurement": "Activity Ratio on Molar basis", "setting": "[1]", "result": 0.28}]}, {"smiles": "C[C@]12CCC(=O)C=C1CC[C@@H]1[C@@H]2[C@@H](O)C[C@@]2(C)[C@H]1CC[C@]2(O)C(=O)CO", "note": "[Hydrocortisone]", "values": [{"measurement": "Effect on Oedema Development", "setting": "[1]; 6 hours after treatment", "result": "0.5 ± 0.2", "unit": "mg"}, {"measurement": "duration of antiinflammatory activity", "setting": "[1]; 18 hours after treatment", "result": "maintain their effect to a certain extent"}, {"measurement": "Effect on Oedema Development", "setting": "[1]; 18 hours after treatment", "result": "0.7 ± 0.1", "unit": "mg"}, {"measurement": "Effect on Oedema Development", "setting": "[1]; 30 hours after treatment", "result": "0.7 ± 0.1", "unit": "mg"}, {"measurement": "Activity Ratio on Molar basis", "setting": "[1]", "result": 14.00}, {"measurement": "Effect on granulocyte infiltration (MPO activity)", "setting": "[3]; 6 hours after treatment", "result": "0.0 ± 0.2", "unit": "unit"}, {"measurement": "Effect on granulocyte infiltration (MPO activity)", "setting": "[3]; 18 hours after treatment", "result": "6.9 ± 2.1", "unit": "unit"}, {"measurement": "Effect on granulocyte infiltration (MPO activity)", "setting": "[3]; 30 hours after treatment", "result": "8.2 ± 2.4", "unit": "unit"}]}, {"smiles": "O=c1cc(-c2ccc(O)cc2)oc2cc(O)cc(O)c12", "note": "[Apigenin, apigenin]", "values": [{"measurement": "leukocyte infiltration", "setting": "[3]", "result": "decrease leukocyte infiltration"}]}]}
